The target in one series is phosphodiesterase. Nature of the series: Inhibition of the degradation of cyclic AMP by phosphodiesterase (spectrophotometry). Particulars: rat brain enzyme extract, 25° C., 265 nm. The series is classed as biochemical. The method, then:
Inhibition of the Degredation Reaction of Cyclic AMP by Phosohodiesterase
The enzyme extract necessary for this study is prepared from rat brain.
After decapitation, the brain is removed, weighed and frozen for half an hour at -70° C. The preparation, maintained in ice, is then diluted and homogenized in 50% glycerol containing 50 mmol tris(hydroxymethyl)aminomethane and 50 mmol magnesium sulfate, in the proportion of 5 ml per gram of brain. The preparation is then centrifuged. The supernatent is distributed in aliquots and stored at 4° C.
In the study, the enzyme extract is incubated :n the presence of cyclic AMP (Boehringer® Ref. 102300), alkaline phosphatase (Boehringer® Ref 108138), adenosine deaminase (Boehringer® Ref. 102091) and increasing amounts of the compounds of the invention. The kinetics of the degredation of cyclic AMP is followed by spectrophotometry at 25° C. A mixture devoid of alkaline phosphatase and adenosine deaminase is used as blank. The measurement of the optical density is carried out at 265 nm. The concentration of the compounds of the invention leading to a 50% inhibition of the enzymatic reaction (IC50) is calculated. Two reference substances, diosmine and theoprylline, are studied according to the same methodology.

In series [1] the test system is polymorphonuclear leukocytes. Nature of the series: Oxygen-containing free radical production by polymorphonuclear leukocytes (chemiluminescence). The series is classed as cell-based. The following applies: Leukocyte; rat polymorphonuclear leukocytes, Zymosan, Luminol; read-out: IC50, inhibition of the chemiluminescence reaction (free radical production). The text has this:
Evaluation of the Pharmacodynamic Activity with Respect to Oxygen-Containing Free Radicals Produced by Polymorphonuclear Leukocytes The possible pharmacodynamic activity of the compounds of the invention with respect to the production of free radicals by polymorphonuclear leukocytes was investigated in vitro. The cellular model used was rat polymorphonuclear leukocytes. This model is capable of producing free radicals in a manner that can be monitored. The production of free radicals was quantified by measurement of the chemiluminescence, which is proportional to their quantity. Quantities of 2×10^6 polymorphonuclear leukocyte cells, isolated from heparinized rat blood, are mixed with solutions of increasing concentrations of the compounds of the invention (2×10^-4 M to 2×10^-8 M). Appropriate amounts of Hanks' solution, Zymosan® (Sigma 24250) and Luminol® (Merck 82007) are then added successively. The solutions are kept shielded from the light, and transferred rapidly to a liquid scintillation counter. In the "blank" sample, the polymorphonuclear leukocytes are replaced by an equivalent volume of Hanks' solution, and in the "control" sample, the solution of "test compounds" is replaced by a Hanks' solution. The same study was carried out with a reference product: diosmine. The percentage inhibition of free radical production was calculated by the following formula: [formula] Cl control: Maximum chemiluminescence of "control" sample Cl compounds: Maximum chemiluminescence of "test compounds" sample Cl blank: Maximum chemiluminescence of "blank" sample […]

The next series can be described thus: Solubility in water. The series is classed as physicochemical. The following applies: addition salt.
Series [2] concerns Croton Oil-Induced Edema of the Mouse's Ear. Nature of the series: Croton oil-induced edema of the mouse's ear. Type of series: in vivo, CD1 (Charles River) male mice. The following applies: single dose, sacrificed six hours after irritation. The method, then:
Croton Oil-Induced Edema of the Mouse's Ear This test consists in inflaming the mouse's ears with an irritant solution based on croton oil, and in testing the preventive effect of the test compounds administered per os. The tests were carried out on batches of at least 8 CD1 (Charles River) male mice of average weight 18-20 g. The compounds of the invention were administered by gavage with a tube, in a single dose, on the basis of 0.1 ml of liquid per 10 g of mouse. The mouse was deprived of food, but not of drink, 2 hours before the gavage and until after the irritation. Thirty minutes after the gavage, each mouse was lightly anesthetized with ether. 10 μl of the irritant solution were then deposited by means of an Eppendorf pipette on the cutaneous surface of the pinna of the right ear; the left ear, which was not subjected to any treatment, acted as control. The animal was then replaced in the cage and sacrificed six hours later. The ears were sectioned along the cartilagineous edge and weighed immediately. To assess the activity of the product, the mean increase in weight of the ears of the treated batches (m) is compared by Student's test with that of the untreated control batch (mc).

With `COc1ccc(-c2cc(=O)c3c(O)cc(O[C@@H]4O[C@H](CO[C@@H]5O[C@@H](C)[C@H](O)[C@@H](O)[C@H]5O)[C@@H](O)[C@H](O)[C@H]4O)cc3o2)cc1O` [DIOSMINE, diosmine, reference compound], the IC50 (in general, the concentration needed to halve the response being measured) came out at 100 µM against phosphodiesterase and 40 µM in series [1].
Regarding `CCOC(=O)COc1cc(-c2cc(=O)c3c(O)cc(OCC(=O)N4CCN(Cc5ccc(OC)c(OC)c5OC)CC4)cc3o2)ccc1OC` [Example 1 (monophosphate), 7-[2-{4-[(2,3,4-trimethoxyphenyl)methyl]-1-piperazinyl}-2-oxoethoxy-5-hydroxy-4'-methoxy-3'-(2-ethoxy-2-oxoethoxy)flavone monophosphate], the solubility (as a rule, the concentration that dissolves in the medium under given conditions) in the series “Solubility in water” was found to be 158 mg/mL.
In the case of `CCOC(=O)COc1cc(OCC(=O)N2CCN(Cc3ccc(OC)c(OC)c3OC)CC2)c2c(=O)cc(-c3ccc(OC)c(OCC(=O)OCC)c3)oc2c1.Cl` [Example 2 (hydrochloride), 5-[2-{4-[(2,3,4-Trimethoxyphenyl)methyl]-1-piperazinyl}-2-oxoethoxy]-7,3'-bis(2-ethoxy-2-oxoethoxy)-4'-methoxyflavone hydrochloride], the “I (percentage inhibition of ear edema)” value in series [2] (166 mg.kg^-1 per os, p < 0.05) was -34%. Further, the solubility in the series “Solubility in water” was found to be 163 mg/mL.
`CCOC(=O)COc1cc(OCC(=O)N2CCN(Cc3ccc(OC)c(OC)c3OC)CC2)c2c(=O)cc(-c3ccc(OC)c(OCC(=O)OCC)c3)oc2c1` [Example 2, 5-[2-{4-[(2,3,4-Trimethoxyphenyl)methyl]-1-piperazinyl}-2-oxoethoxy-]-7,3'-bis(2-ethoxy-2-oxoethoxy)-4'-methoxyflavone]: the IC50 against phosphodiesterase amounted to 20 µM; in series [1], 4 µM.
In the case of `COc1ccc(-c2cc(=O)c3c(O)cc(O[C@@H]4O[C@H](CO[C@@H]5O[C@@H](C)[C@H](O)[C@@H](O)[C@H]5O)[C@@H](O)[C@H](O)[C@H]4O)cc3o2)cc1OCC(=O)N1CCN(Cc2ccc(OC)c(OC)c2OC)CC1` [Example 3 (hemitartrate), 3'-[2-{4-[(2,3,4-Trimethoxyphenyl)methyl]-1-piperazinyl}-2-oxoethoxy]-4'-methoxy-5-hydroxyflavone 7-chamnoglucoside hemitartrate], in series [2] (200 mg.kg^-1 per os, p < 0.01), the “I (percentage inhibition of ear edema)” value is on record as -26%. In “Solubility in water”, the solubility was found to be 200 mg/mL.
In turn, `COc1ccc(-c2cc(=O)c3c(O)cc(O[C@@H]4O[C@H](CO[C@@H]5O[C@@H](C)[C@H](O)[C@@H](O)[C@H]5O)[C@@H](O)[C@H](O)[C@H]4O)cc3o2)cc1OCC(=O)N1CCN(Cc2ccc(OC)c(OC)c2OC)CC1` [Example 3, 3'-[2-{4-[(2,3,4-Trimethoxyphenyl)methyl]-1-piperazinyl}-2-oxoethoxy]-4'-methoxy-5-hydroxyflavone 7-chamnoglucoside] came in with an IC50 against phosphodiesterase of 25 µM.
On to `COc1ccc(-c2cc(=O)c3c(O)cc(O[C@@H]4O[C@H](CO)[C@@H](O)[C@H](O)[C@H]4O)cc3o2)cc1OCC(=O)N1CCN(Cc2ccc(OC)c(OC)c2OC)CC1` [Example 4 (monophosphate), 3'-[2-{4-[(2,3,4-Trimethoxyphenyl)methyl]-1-piperazinyl}-2-oxoethoxy]-4'-methoxy-5-hydroxyflavone 7β-glucoside monophosphate], for which the “I (percentage inhibition of ear edema)” value in series [2] (173 mg.kg^-1 per os, p < 0.05) is -28%. For the same compound, the solubility in “Solubility in water” was 43 mg/mL.
On to `COc1ccc(-c2cc(=O)c3c(O)cc(O)cc3o2)cc1OCC(=O)N1CCN(Cc2ccc(OC)c(OC)c2OC)CC1` [Example 5 (methanesulfonate), 3'-[2-{4-[(2,3,4-trimethoxyphenyl)methyl]-1-piperazinyl}-2-oxoethoxy]-4'-methoxy-5,7-dihydroxyflavone], for which the solubility in “Solubility in water” worked out at 35 mg/mL.
Same read-out and setting: for `CCOC(=O)COc1cc(O)c2c(=O)cc(-c3ccc(OC)c(OCC(=O)N4CCN(Cc5ccc(OC)c(OC)c5OC)CC4)c3)oc2c1` [Example 6 (monophosphate), 3'[2-{4-[(2,3,4-Trimethoxyphenyl)methyl]-1-piperazinyl}-2-oxoethoxy]-4'-methoxy-5-hydroxy-7-(2-ethoxy-2-oxoethyoxy)flavone phosphate] the value was 39.5 mg/mL.
Turning to `CCOC(=O)COc1cc(O)c2c(=O)cc(-c3ccc(OC)c(OCC(=O)N4CCN(Cc5ccc(OC)c(OC)c5OC)CC4)c3)oc2c1` [Example 6, 3'-[2-{4-[(2,3,4-Trimethoxyphenyl)methyl]-1-piperazinyl}-2-oxoethoxy]-4'-methoxy-5-hydroxy-7-(2-ethoxy-2-oxoethoxy)flavone], the IC50 in series [1] was determined as 10 µM.
`COc1ccc(-c2cc(=O)c3c(O)cc(OCC(=O)N4CCN(Cc5ccc(OC)c(OC)c5OC)CC4)cc3o2)cc1OCC(=O)N1CCN(Cc2ccc(OC)c(OC)c2OC)CC1` [Example 7 (biphosphate), 7,3'-Bis[2-{4-[(2,3,4-trimethoxyphenyl)methyl]-1-piperazinyl}-2-oxoethoxy]-5-hydroxy-4'-methoxyflavone biphosphate]: the solubility in the series “Solubility in water” was determined as 221 mg/mL.
As to `COc1ccc(-c2cc(=O)c3c(O)cc(OCC(=O)N4CCN(Cc5ccc(OC)c(OC)c5OC)CC4)cc3o2)cc1OCC(=O)N1CCN(Cc2ccc(OC)c(OC)c2OC)CC1` [Example 7, 7,3'-Bis[2-{4-[(2,3,4-trimethoxyphenyl)methyl]-1-piperazinyl}-2-oxoethoxy]-5-hydroxy-4'-methoxyflavone], the IC50 against phosphodiesterase was determined as 10 µM.
On to `COc1ccc(C2CC(=O)c3c(O)cc(OCC(=O)N4CCN(Cc5ccc(OC)c(OC)c5OC)CC4)cc3O2)cc1O.CS(=O)(=O)O` (stereo not drawn) [Example 8 (methanesulfonate), 7-[2-{4-[(2,3,4-Trimethoxyphenyl)methyl]-1-piperazinyl}-2-oxoethoxy]-5,3'-dihydroxy-4'-methoxyflavanone methanesulfonate], for which the solubility in the series “Solubility in water” came out at 1.4 mg/mL.
For `COc1ccc(C2CC(=O)c3c(O)cc(OCC(=O)N4CCN(Cc5ccc(OC)c(OC)c5OC)CC4)cc3O2)cc1O` (stereo not drawn) [Example 8, 7-[2-{4-[(2,3,4-Trimethoxyphenyl)methyl]-1-piperazinyl}-2-oxoethoxy]-5,3'-dihydroxy-4'-methoxyflavanone], the values for the IC50 (against phosphodiesterase; in series [1]) were 57 µM and 15 µM, respectively.
In the case of `Cn1c(=O)c2[nH]cnc2n(C)c1=O` [THEOPHYLLINE, theophylline, reference compound], at phosphodiesterase, the IC50 came to 1000 µM.

For the origin of these results see patent US4970301A, “2-(piperazinyl)-2-oxoethylene-substituted flavonoid compounds” (Adir et Cie, priority 1987, dated 1990).
